PMC9866191, “Novel 9-Benzylaminoacridine Derivatives as Dual Inhibitors of Phosphodiesterase 5 and Topoisomerase II for the Treatment of Colon Cancer” (Molecules, 2023)

How the values were obtained:
HCT-116 = assay: MTT cell proliferation assay, HCT-116; details: for % Inhibition at 10 µM: 72 h MTT, means ± SD; for IC50: read-out: IC50 μM, 72 h MTT, means ± SD, three experiments
CCD-966SK = assay: MTT cell proliferation assay, CCD-966SK; details: CCD966SK skin fibroblast, 72 h MTT
HS 578T = assay: NCI-60 one-dose screen; assay type: cell-based; details: Homo sapiens, Breast Cancer panel, single dose 10^−5 M, read-out: Growth inhibition %
SK-MEL-28 = assay: NCI-60 one-dose screen; assay type: cell-based; details: Homo sapiens; SK-MEL-28, Melanoma panel; single dose 10^−5 M; read-out: Growth inhibition %
SW-620 = assay: NCI-60 one-dose screen; assay type: cell-based; details: Homo sapiens; SW-620, Colon Cancer panel; single dose 10^−5 M; read-out: Growth inhibition %
SK-MEL-5 = assay: NCI-60 one-dose screen; assay type: cell-based; details: Homo sapiens; SK-MEL-5, Melanoma panel; single dose 10^−5 M; read-out: Growth inhibition %
KM12 = assay: NCI-60 one-dose screen; assay type: cell-based; details: Homo sapiens; KM12, Colon Cancer panel; single dose 10^−5 M; read-out: Growth inhibition %
CAKI-1 = assay: NCI-60 one-dose screen; assay type: cell-based; details: Homo sapiens; CAKI-1, Renal Cancer panel; single dose 10^−5 M; read-out: Growth inhibition %
K-562 = assay: NCI-60 one-dose screen; assay type: cell-based; details: Homo sapiens, K562; K-562, Leukemia panel; single dose 10^−5 M; read-out: Growth inhibition %
HCT-15 = assay: NCI-60 one-dose screen; assay type: cell-based; details: Homo sapiens; HCT-15, Colon Cancer panel; single dose 10^−5 M; read-out: Growth inhibition %
MDA-MB-231/ATCC = assay: NCI-60 one-dose screen; assay type: cell-based; details: Homo sapiens, Breast Cancer panel, single dose 10^−5 M, read-out: Growth inhibition %
NCI-H226 = assay: NCI-60 one-dose screen; assay type: cell-based; details: Homo sapiens; NCI-H226, Non-small cell lung panel; single dose 10^−5 M; read-out: Growth inhibition %
SR = assay: NCI-60 one-dose screen; assay type: cell-based; details: Homo sapiens, Leukemia panel, single dose 10^−5 M, read-out: Growth inhibition %
OVCAR-3 = assay: NCI-60 one-dose screen; assay type: cell-based; details: Homo sapiens; OVCAR-3, Ovarian Cancer panel; single dose 10^−5 M; read-out: Growth inhibition %
MDA-MB-435 = assay: NCI-60 one-dose screen; assay type: cell-based; details: Homo sapiens; MDA-MB-435, Melanoma panel; single dose 10^−5 M; read-out: Growth inhibition %
786-0 = assay: NCI-60 one-dose screen; assay type: cell-based; details: Homo sapiens; 786-0, Renal Cancer panel; single dose 10^−5 M; read-out: Growth inhibition %
MOLT-4 = assay: NCI-60 one-dose screen; assay type: cell-based; details: Homo sapiens; MOLT-4, Leukemia panel; single dose 10^−5 M; read-out: Growth inhibition %
SNB-75 = assay: NCI-60 one-dose screen; assay type: cell-based; details: Homo sapiens; SNB-75, CNS Cancer panel; single dose 10^−5 M; read-out: Growth inhibition %
EKVX = assay: NCI-60 one-dose screen; assay type: cell-based; details: Homo sapiens, Non-small cell lung panel, single dose 10^−5 M, read-out: Growth inhibition %
DU-145 = assay: NCI-60 one-dose screen; assay type: cell-based; details: Homo sapiens; DU-145, Prostate Cancer panel; single dose 10^−5 M; read-out: Growth inhibition %
UO-31 = assay: NCI-60 one-dose screen; assay type: cell-based; details: Homo sapiens; UO-31, Renal Cancer panel; single dose 10^−5 M; read-out: Growth inhibition %
ACHN = assay: NCI-60 one-dose screen; assay type: cell-based; details: Homo sapiens, Renal Cancer panel, single dose 10^−5 M, read-out: Growth inhibition %
OVCAR-8 = assay: NCI-60 one-dose screen; assay type: cell-based; details: Homo sapiens; OVCAR-8, Ovarian Cancer panel; single dose 10^−5 M; read-out: Growth inhibition %
HT29 = assay: NCI-60 one-dose screen; assay type: cell-based; details: Homo sapiens, HT-29; HT29, Colon Cancer panel; single dose 10^−5 M; read-out: Growth inhibition %
HL-60(TB) = assay: NCI-60 one-dose screen; assay type: cell-based; details: Homo sapiens, Leukemia panel, single dose 10^−5 M, read-out: Growth inhibition %
COLO 205 = assay: NCI-60 one-dose screen; assay type: cell-based; details: Homo sapiens; COLO 205, Colon Cancer panel; single dose 10^−5 M; read-out: Growth inhibition %
BT-549 = assay: NCI-60 one-dose screen; assay type: cell-based; details: Homo sapiens; BT-549, Breast Cancer panel; single dose 10^−5 M; read-out: Growth inhibition %
PDE5A = molecular target: T1, PDE5A (Homo sapiens, UniProt O76074); assay: Phosphodiesterase 5 HTRF cGMP assay; assay type: biochemical; details: for IC50: means ± S.D. (n = 4), read-out: PDE5 IC50; for inhibition at 10 µM: read-out: PDE5 % Inhibition at 10 μM
T1 construct: purchased BPS Bioscience, San Diego, CA, USA
Method: All the synthesized acridine derivatives were tested for their in vitro ability to inhibit PDE5A at a screening dose of 10 µM.
The enzyme activities of phosphodiesterase 5 (PDE5) were measured using an HTRF cGMP assay kit (Cisbio, Codolet, France). […] Afterward, the HTRF reagent (cGMP-d2 and anti-cGMP-cryptate) was added for 1 h at 25 °C, and PDE activity was assayed on an HTRF reader (Tecan Infinite F200 Pro).

SF-268 = assay: NCI-60 one-dose screen; assay type: cell-based; details: Homo sapiens; SF-268, CNS Cancer panel; single dose 10^−5 M; read-out: Growth inhibition %

| SMILES | % Inhibition at 10 µM (HCT-116) [%] | % Inhibition at 10 µM (CCD-966SK) [%] | inhibition at 10 µM (HS 578T) [%] | inhibition at 10 µM (SK-MEL-28) [%] | inhibition at 10 µM (SW-620) [%] | inhibition at 10 µM (SK-MEL-5) [%] | inhibition at 10 µM (KM12) [%] | inhibition at 10 µM (CAKI-1) [%] | inhibition at 10 µM (K-562) [%] | inhibition at 10 µM (HCT-15) [%] | inhibition at 10 µM (MDA-MB-231/ATCC) [%] | inhibition at 10 µM (NCI-H226) [%] | inhibition at 10 µM (SR) [%] | inhibition at 10 µM (OVCAR-3) [%] | inhibition at 10 µM (MDA-MB-435) [%] | inhibition at 10 µM (786-0) [%] | inhibition at 10 µM (MOLT-4) [%] | inhibition at 10 µM (SNB-75) [%] | inhibition at 10 µM (EKVX) [%] | inhibition at 10 µM (DU-145) [%] | further results |
| --- | --- | --- | --- | --- | --- | --- | --- | --- | --- | --- | --- | --- | --- | --- | --- | --- | --- | --- | --- | --- | --- |
| COc1ccc2nc3ccccc3c(NCc3ccccc3)c2c1 [Compound 25, Benzyl-(2-methoxyacridin-9-yl)-amine] | 59.62 ± 2.66 | 44.14 ± 3.80 | 74.8 | 50.3 | 80.5 | 81.2 | 63.5 | 74.2 | 94.2 | 86.9 | 72.2 | 65.6 | 95.7 | 59 | 66.2 | 77.7 | 92 | 54.5 | 73.1 | 77.5 | IC50 (HCT-116): 7.43 ± 0.77 µM; inhibition at 10 µM (UO-31): 86.2%; inhibition at 10 µM (ACHN): 87.2%; inhibition at 10 µM (OVCAR-8): 71.8%; inhibition at 10 µM (HT29): 91.5%; inhibition at 10 µM (HL-60(TB)): 91.8%; inhibition at 10 µM (COLO 205): 119%; inhibition at 10 µM (BT-549): 49.7%; IC50 (PDE5A): 3.61 ± 1 µM; inhibition at 10 µM (PDE5A): 77.2 ± 3.03%; inhibition at 10 µM (SF-268): 55.8% |
| COc1ccc2nc3ccccc3c(NCc3ccc(C)cc3)c2c1 [Compound 26, (2-Methoxyacridin-9-yl)-(4-methylbenzyl)-amine] | 38.11 ± 1.35 | 46.76 ± 3.21 | 57.3 | 33.6 | 81.5 | 65.6 | 62.7 | 73.8 | 97.3 | 88.6 | 66.4 | 57.9 | 113 | 53.1 | 57.8 | 84.2 | 99.7 | 53.4 | 64.8 | 78.4 | inhibition at 10 µM (UO-31): 86.7%; inhibition at 10 µM (ACHN): 83.7%; inhibition at 10 µM (OVCAR-8): 71.3%; inhibition at 10 µM (HT29): 98.8%; inhibition at 10 µM (HL-60(TB)): 100%; inhibition at 10 µM (COLO 205): 141%; inhibition at 10 µM (BT-549): 48.4%; IC50 (PDE5A): 0.83 ± 0.12 µM; inhibition at 10 µM (PDE5A): 88.1 ± 4.28%; inhibition at 10 µM (SF-268): 51.6% |
| COc1ccc2nc3ccccc3c(NCc3ccc(F)cc3)c2c1 [Compound 28, (4-Fluorobenzyl)-(2-methoxyacridin-9-yl)-amine] | 75.53 ± 2.52 | 60.66 ± 2.63 | 73.9 | 64.7 | 85.3 | 107 | 71.3 | 92.8 | 98 | 95.9 | 83.3 | 70 | 101 | 68.8 | 76.1 | 93.2 | 99.5 | 76.2 | 77.6 | 83.5 | IC50 (HCT-116): 2.51 ± 0.53 µM; IC50 (CCD-966SK; read-out: IC50 μM): 4.67 ± 0.07 µM; inhibition at 10 µM (UO-31): 108%; inhibition at 10 µM (ACHN): 94.3%; inhibition at 10 µM (OVCAR-8): 80.5%; inhibition at 10 µM (HT29): 99.8%; inhibition at 10 µM (HL-60(TB)): 135%; inhibition at 10 µM (COLO 205): 154%; inhibition at 10 µM (BT-549): 65%; IC50 (PDE5A): 5.31 ± 1.27 µM; inhibition at 10 µM (PDE5A): 64.2 ± 7.47%; inhibition at 10 µM (SF-268): 65.4% |
| COc1ccc2nc3ccccc3c(NCc3ccc(Cl)cc3)c2c1 [Compound 29, (4-Chlorobenzyl)-(2-methoxyacridin-9-yl)-amine] | 28.83 ± 2.64 | 2.90 ± 2.51 | 64 | 92.9 | 87.2 | 88.3 | 59.9 | 78.6 | 130 | 95 | 75.7 | 51.2 | 130 | 49 | 75.9 | 177 | 108 | 42.4 | 66.2 | 78.5 | inhibition at 10 µM (UO-31): 98.1%; inhibition at 10 µM (ACHN): 82.9%; inhibition at 10 µM (OVCAR-8): 70.3%; inhibition at 10 µM (HT29): 102%; inhibition at 10 µM (HL-60(TB)): 164%; inhibition at 10 µM (COLO 205): 162%; inhibition at 10 µM (BT-549): 49.8%; IC50 (PDE5A): 5.35 ± 1.01 µM; inhibition at 10 µM (PDE5A): 66.1 ± 3.27%; inhibition at 10 µM (SF-268): 46.5% |
